Reference: patent publication US20050239656A1, “Pyridine compounds or salts thereof and herbicides containing the same” (priority 2002, published 2005)

Columns and labels:
barnyardgrass [1] = assay: Test Example 2: soil surface treatment, upland pot test; type: in vivo, Echinochloa crus-galli L.
Description: (§1) Upland field soil was put into a 1/170,000 ha pot, and seed of various plants (barnyardgrass, crabgrass, green foxtail, redroot pigweed, prickly sida, velvetleaf, rice, wheat, corn, soybean) were sown. On the 1st day after the sowing, a wettable powder or emulsifiable concentrate having the compound of the present invention formulated in accordance with a usual formulation method, was weighed so that the active ingredient would be a predetermined amount, and diluted with water in an amount of 1,500 L/ha. The herbicide thus adjusted was applied by a small size sprayer for soil surface treatment. On the 20th to 28th days after the application of the herbicide, the growth of the respective plants was visually observed, and the herbicidal effects were evaluated by the growth controlling degrees (%) ranging from 0 (equivalent to the non-treated plot) to 100 (complete kill), whereby the results shown in Table 4, were obtained.

crabgrass = assay: as above; type: in vivo, Digitaria sanguinalis L.
Description: as §1

green foxtail = assay: as above; type: in vivo, Setaria viridis L.
Description: as §1

redroot pigweed = assay: as above; type: in vivo, Amaranthus retroflexus L.
Description: as §1

prickly sida = assay: as above; type: in vivo, Sida spinosa L.
Description: as §1

velvetleaf = assay: as above; type: in vivo, Abutilon theophrasti MEDIC.
Description: as §1

rice = assay: as above; type: in vivo, Oryza sativa L.
Description: as §1

corn = assay: as above; type: in vivo, Zea mays L.
Description: as §1

soybean = assay: as above; type: in vivo, Glycine max Merr.
Description: as §1

barnyardgrass [2] = assay: Test Example 3: paddy pot test, application under submerged conditions; type: in vivo, Echinochloa crus-galli L.; conditions: submerged application at 0.5 leaf stage, visually observed 14 days after application, 0 = non-treated, 100 = complete kill
Description: (§2) Paddy field soil was put into a 1/1,000,000 ha pot, and seed of barnyardgrass and japanese bulrush were sown and slightly covered with soil. Then, the pot was left to stand still in a greenhouse in a state where the depth of flooding water was from 0.5 to 1 cm, and one day or two days later, tubers of japanese ribbon wapato were planted. Thereafter, the depth of flooding water was maintained at a level of from 3 to 4 cm, and when barnyardgrass and japanese bulrush reached a 0.5 leaf stage and japanese ribbon wapato reached a primary leaf stage, an aqueous diluted solution of a wettable powder or emulsifiable concentrate having the compound of the present invention formulated in accordance with a usual formulation method, was uniformly applied under submerged conditions by a pipette so that the dose of the active ingredient would be at a predetermined level. On the 14 days after the application of the herbicide, the growth of barnyard grass, japanese burlrush and japanese ribbon wapato was visually observed and on the 21st day after the application of the herbicide, the growth of rice was visually observed, and the herbicidal effects were evaluated by the growth-controlling degrees (%) ranging from 0 (equivalent to the non-treated plot) to 100 (complete kill), whereby the results shown in Table 5 were obtained.

japanese bulrush = assay: as above; type: in vivo, Scirpus juncoides; conditions: submerged application at 0.5 leaf stage, visually observed 14 days after application, 0 = non-treated, 100 = complete kill
Description: as §2

rice (var. Nihonbare) = assay: Test Example 3: paddy pot test, transplanted rice; type: in vivo, Oryza sativa L.; conditions: applied 4th day after transplantation, visually observed 21st day after application, 0 = non-treated, 100 = complete kill
Description: as §2, with “On the other hand, paddy field soil was put into a 1/1,000,000 ha pot and puddled and leveled, and the depth of flooding water was from 3 to 4 cm. Next day, rice (var. Nihonbare) of 2 leaf stage was transplanted in a depth of 3 cm. On the 4th day after the transplantation, the compound of the present invention was applied in the same manner as described above. On the 14 days” for “On the 14 days”

japanese ribbon wapato = assay: Test Example 3: paddy pot test, application under submerged conditions; type: in vivo, Sagittaria pygniaea; conditions: submerged application at primary leaf stage, visually observed 14 days after application, 0 = non-treated, 100 = complete kill
Description: as §2

[3] = active ingredient 500 g/ha, observed day 21, 0 = non-treated, 100 = complete kill
[4] = active ingredient 500 g/ha, observed 20th to 28th day
[5] = active ingredient 250 g/ha, observed 20th to 28th day

Structure (SMILES): CC(C)C(c1cnccc1C(F)(F)F)N(C)C(=O)COc1cccc(C(F)(F)F)c1 (stereo not drawn) [I-254]
- Growth controlling degree (%) Barnyardgrass (barnyardgrass [1]; [3]): 90%
- Growth controlling degree (%) Crabgrass (crabgrass; [3]): 98%
- Growth controlling degree (%) Green foxtail (green foxtail; [3]): 100%
- Growth controlling degree (%) Redroot pigweed (redroot pigweed; [3]): 50%
- Growth controlling degree (%) Prickly sida (prickly sida; [3]): 90%
- Growth controlling degree (%) Velvetleaf (velvetleaf; [3]): 70%
- Growth controlling degree (%) Rice (rice; [3]): 10%
- Growth controlling degree (%) Corn (corn; [3]): 10%
- Growth controlling degree (%) Soyabean (soybean; [3]): 10%
- Growth controlling degree (%) Barnyardgrass (barnyardgrass [2]; active ingredient 250 g/ha): 100%
- Growth controlling degree (%) Japanese bulrush (japanese bulrush; active ingredient 250 g/ha): 98%
- Growth controlling degree (%) Rice (rice (var. Nihonbare); active ingredient 250 g/ha): 0%

Structure (SMILES): CCN(C(=O)Cc1ccc(C)cc1)C(c1cnccc1C(F)(F)F)C(C)C (stereo not drawn) [I-101]
- Growth controlling degree (%) Barnyardgrass (barnyardgrass [1]; [4]): 70%
- Growth controlling degree (%) Green foxtail (green foxtail; [4]): 70%
- Growth controlling degree (%) Redroot pigweed (redroot pigweed; [4]): 80%
- Growth controlling degree (%) Prickly sida (prickly sida; [4]): 30%
- Growth controlling degree (%) Velvetleaf (velvetleaf; [4]): 30%
- Growth controlling degree (%) Rice (rice; [4]): 0%
- Growth controlling degree (%) Corn (corn; [4]): 10%
- Growth controlling degree (%) Soyabean (soybean; [4]): 0%
- Growth controlling degree (%) Barnyardgrass (barnyardgrass [2]; active ingredient 250 g/ha): 100%
- Growth controlling degree (%) Japanese bulrush (japanese bulrush; active ingredient 250 g/ha): 98%
- Growth controlling degree (%) Japanese ribbon wapato (japanese ribbon wapato; active ingredient 250 g/ha): 40%
- Growth controlling degree (%) Rice (rice (var. Nihonbare); active ingredient 250 g/ha): 10%

Structure (SMILES): CC(C)C(c1cnccc1C(F)(F)F)N(C)C(=O)Cc1ccc(Cl)cc1 (stereo not drawn) [I-23]
- Growth controlling degree (%) Barnyardgrass (barnyardgrass [1]; [5]): 95%
- Growth controlling degree (%) Crabgrass (crabgrass; [5]): 98%
- Growth controlling degree (%) Green foxtail (green foxtail; [5]): 98%
- Growth controlling degree (%) Redroot pigweed (redroot pigweed; [5]): 85%
- Growth controlling degree (%) Prickly sida (prickly sida; [5]): 98%
- Growth controlling degree (%) Velvetleaf (velvetleaf; [5]): 60%
- Growth controlling degree (%) Rice (rice; [5]): 0%
- Growth controlling degree (%) Corn (corn; [5]): 10%
- Growth controlling degree (%) Soyabean (soybean; [5]): 20%
- Growth controlling degree (%) Japanese bulrush (japanese bulrush; active ingredient 500 g/ha): 90%
- Growth controlling degree (%) Japanese ribbon wapato (japanese ribbon wapato; active ingredient 500 g/ha): 85%
- Growth controlling degree (%) Rice (rice (var. Nihonbare); active ingredient 500 g/ha): 30%

Structure (SMILES): CC(C)C(c1cnccc1C(F)(F)F)N(C)C(=O)Nc1ccccc1 (stereo not drawn) [Compound I-230]
- Growth controlling degree (%) Barnyardgrass (barnyardgrass [1]; [4]): 50%
- Growth controlling degree (%) Crabgrass (crabgrass; [4]): 98%
- Growth controlling degree (%) Green foxtail (green foxtail; [4]): 70%
- Growth controlling degree (%) Redroot pigweed (redroot pigweed; [4]): 60%
- Growth controlling degree (%) Prickly sida (prickly sida; [4]): 30%
- Growth controlling degree (%) Velvetleaf (velvetleaf; [4]): 0%
- Growth controlling degree (%) Rice (rice; [4]): 10%
- Growth controlling degree (%) Corn (corn; [4]): 40%
- Growth controlling degree (%) Soyabean (soybean; [4]): 0%

Structure (SMILES): CC(C)C(c1cnccc1C(F)(F)F)N(C)C(=O)C=Cc1cccnc1 (stereo not drawn) [Compound I-184]
- Growth controlling degree (%) Barnyardgrass (barnyardgrass [1]; [4]): 30%
- Growth controlling degree (%) Crabgrass (crabgrass; [4]): 98%
- Growth controlling degree (%) Green foxtail (green foxtail; [4]): 40%
- Growth controlling degree (%) Redroot pigweed (redroot pigweed; [4]): 30%
- Growth controlling degree (%) Prickly sida (prickly sida; [4]): 80%
- Growth controlling degree (%) Velvetleaf (velvetleaf; [4]): 50%
- Growth controlling degree (%) Rice (rice; [4]): 20%
- Growth controlling degree (%) Corn (corn; [4]): 0%
- Growth controlling degree (%) Soyabean (soybean; [4]): 20%
- Growth controlling degree (%) Barnyardgrass (barnyardgrass [2]; active ingredient 500 g/ha): 70%
- Growth controlling degree (%) Japanese bulrush (japanese bulrush; active ingredient 500 g/ha): 90%
- Growth controlling degree (%) Rice (rice (var. Nihonbare); active ingredient 500 g/ha): 10%

Structure (SMILES): CC(C)C(c1cnccc1C(F)(F)F)N(C)C(=O)Cc1ccc(C(F)(F)F)cc1F (stereo not drawn) [Compound I-105]
- Growth controlling degree (%) Barnyardgrass (barnyardgrass [1]; [4]): 70%
- Growth controlling degree (%) Crabgrass (crabgrass; [4]): 98%
- Growth controlling degree (%) Green foxtail (green foxtail; [4]): 100%
- Growth controlling degree (%) Redroot pigweed (redroot pigweed; [4]): 60%
- Growth controlling degree (%) Prickly sida (prickly sida; [4]): 80%
- Growth controlling degree (%) Velvetleaf (velvetleaf; [4]): 10%
- Growth controlling degree (%) Rice (rice; [4]): 10%
- Growth controlling degree (%) Corn (corn; [4]): 30%
- Growth controlling degree (%) Soyabean (soybean; [4]): 10%
- Growth controlling degree (%) Barnyardgrass (barnyardgrass [2]; active ingredient 250 g/ha): 100%
- Growth controlling degree (%) Japanese bulrush (japanese bulrush; active ingredient 250 g/ha): 80%
- Growth controlling degree (%) Rice (rice (var. Nihonbare); active ingredient 250 g/ha): 20%

Structure (SMILES): CNC(=S)N(C)C(c1cnccc1C(F)(F)F)C(C)C (racemic) [Compound I-112]
- Growth controlling degree (%) Barnyardgrass (barnyardgrass [1]; [4]): 20%
- Growth controlling degree (%) Crabgrass (crabgrass; [4]): 70%
- Growth controlling degree (%) Green foxtail (green foxtail; [4]): 50%
- Growth controlling degree (%) Redroot pigweed (redroot pigweed; [4]): 70%
- Growth controlling degree (%) Prickly sida (prickly sida; [4]): 40%
- Growth controlling degree (%) Velvetleaf (velvetleaf; [4]): 10%
- Growth controlling degree (%) Rice (rice; [4]): 40%
- Growth controlling degree (%) Corn (corn; [4]): 10%
- Growth controlling degree (%) Soyabean (soybean; [4]): 10%

Structure (SMILES): CC(C)C(c1cnccc1C(F)(F)F)N(C)C(=O)Cc1c(F)ccc(F)c1F (stereo not drawn) [Compound I-17]
- Growth controlling degree (%) Barnyardgrass (barnyardgrass [1]; [4]): 100%
- Growth controlling degree (%) Crabgrass (crabgrass; [4]): 98%
- Growth controlling degree (%) Green foxtail (green foxtail; [4]): 100%
- Growth controlling degree (%) Redroot pigweed (redroot pigweed; [4]): 50%
- Growth controlling degree (%) Prickly sida (prickly sida; [4]): 90%
- Growth controlling degree (%) Velvetleaf (velvetleaf; [4]): 80%
- Growth controlling degree (%) Rice (rice; [4]): 30%
- Growth controlling degree (%) Corn (corn; [4]): 20%
- Growth controlling degree (%) Soyabean (soybean; [4]): 20%
- Growth controlling degree (%) Japanese bulrush (japanese bulrush; active ingredient 500 g/ha): 90%
- Growth controlling degree (%) Japanese ribbon wapato (japanese ribbon wapato; active ingredient 500 g/ha): 90%
- Growth controlling degree (%) Rice (rice (var. Nihonbare); active ingredient 500 g/ha): 35%

Structure (SMILES): CC(C)C(c1cnccc1C(F)(F)F)N(C)C(=O)SCc1ccccc1 (racemic) [I-113]
- Growth controlling degree (%) Barnyardgrass (barnyardgrass [1]; [4]): 60%
- Growth controlling degree (%) Crabgrass (crabgrass; [4]): 70%
- Growth controlling degree (%) Green foxtail (green foxtail; [4]): 95%
- Growth controlling degree (%) Redroot pigweed (redroot pigweed; [4]): 70%
- Growth controlling degree (%) Prickly sida (prickly sida; [4]): 60%
- Growth controlling degree (%) Velvetleaf (velvetleaf; [4]): 60%
- Growth controlling degree (%) Rice (rice; [4]): 30%
- Growth controlling degree (%) Corn (corn; [4]): 20%
- Growth controlling degree (%) Soyabean (soybean; [4]): 10%
- Growth controlling degree (%) Barnyardgrass (barnyardgrass [2]; active ingredient 250 g/ha): 95%
- Growth controlling degree (%) Japanese bulrush (japanese bulrush; active ingredient 250 g/ha): 30%
- Growth controlling degree (%) Rice (rice (var. Nihonbare); active ingredient 250 g/ha): 0%

Structure (SMILES): Cc1ccc(C=CC(=O)N(C)C(c2cnccc2C(F)(F)F)C(C)C)cc1 (stereo not drawn) [I-181]
- Growth controlling degree (%) Barnyardgrass (barnyardgrass [1]; [4]): 30%
- Growth controlling degree (%) Crabgrass (crabgrass; [4]): 98%
- Growth controlling degree (%) Green foxtail (green foxtail; [4]): 95%
- Growth controlling degree (%) Redroot pigweed (redroot pigweed; [4]): 40%
- Growth controlling degree (%) Velvetleaf (velvetleaf; [4]): 30%
- Growth controlling degree (%) Rice (rice; [4]): 40%
- Growth controlling degree (%) Corn (corn; [4]): 10%
- Growth controlling degree (%) Soyabean (soybean; [4]): 0%
- Growth controlling degree (%) Barnyardgrass (barnyardgrass [2]; active ingredient 500 g/ha): 95%
- Growth controlling degree (%) Japanese bulrush (japanese bulrush; active ingredient 500 g/ha): 98%
- Growth controlling degree (%) Japanese ribbon wapato (japanese ribbon wapato; active ingredient 500 g/ha): 60%
- Growth controlling degree (%) Rice (rice (var. Nihonbare); active ingredient 500 g/ha): 10%

Structure (SMILES): CC(C)C(c1cnccc1C(F)(F)F)N(C)C(=O)CCl (stereo not drawn) [I-168]
- Growth controlling degree (%) Barnyardgrass (barnyardgrass [1]; [4]): 100%
- Growth controlling degree (%) Crabgrass (crabgrass; [4]): 98%
- Growth controlling degree (%) Green foxtail (green foxtail; [4]): 98%
- Growth controlling degree (%) Redroot pigweed (redroot pigweed; [4]): 100%
- Growth controlling degree (%) Prickly sida (prickly sida; [4]): 70%
- Growth controlling degree (%) Velvetleaf (velvetleaf; [4]): 0%
- Growth controlling degree (%) Rice (rice; [4]): 98%
- Growth controlling degree (%) Corn (corn; [4]): 10%
- Growth controlling degree (%) Soyabean (soybean; [4]): 20%
